Laboratory results taken from patent US20250089715A1, “INSECTICIDAL MIXTURES” (ADAMA MAKHTESHIM LTD., priority 2021, published 2025).

Assays:
[1] = tested on: Helicoverpa armigera (Heliothis) larvae; assay: Leaf-dip bioassay on Helicoverpa armigera larvae (cotton leaves); assay type: in vivo; details: for Lethal concentrations for Helicoverpa armigera (Heliothis), LD50 / Lethal concentrations for Helicoverpa armigera (Heliothis), LD90: third instar larvae, treated cotton leaves, probit analysis
Procedure: (§1) The laboratory susceptible strain of S. littoralis is collected in 2000 from a cotton field in Bet She'an area ([…] part of Israel) and is reared on castor bean (Ricinus communis) leaves under standard rearing conditions of 27° C., 55% RH and 14 h photoperiod. Field strain of H. armigera was collected in June 2020 from cotton fields near Rehovot area and was reared on premixed diet (Ward's Stonefly Heliothis Diet, USA) under standard rearing conditions of 27° C., 55% RH and 14 h photoperiod.
Tender leaves of cotton were dipped in aqueous concentrations of a formulation or in water as control. After 15 seconds of dipping, the cotton leaves were then allowed to air dry for 2 h. Afterwards, Heliothis larvae (third instars, 8-10 mm), reared in a controlled growth room (27±2° C. and 50% RH with a photoperiod of 14:10 h light:dark) were put inside Petri dishes on treated cotton leaves; in addition, filter papers were also added to the dishes (to avoid too much moisture). The experiments were done on 5-10 larvae for each concentration and were repeated three times, on separate days.
Mortality of the larvae in comparison with the control was determined, two and five-six days after exposure to the formulations.
(§2) To obtain a concentration-mortality line, at least three concentrations were used for most of the bioassays. LC values were estimated by probit analysis (POLO, 1987). Control mortality was corrected using Abbott's (1925) formula.
(§3) Firstly, all the compounds were assessed alone against the larvae, and then, binary mixtures of chlorantraniliprole with tau-fluvalinate were evaluated in different ratios.

[2] = tested on: Spodoptera littoralis larvae; assay: Leaf-dip feeding bioassay on Spodoptera littoralis larvae (castor bean leaves); assay type: in vivo; details: for Lethal concentrations for Spodoptera littoralis, LD50 / Lethal concentrations for Spodoptera littoralis, LD90: early 3rd-instar larvae, treated castor bean leaves, probit analysis
Procedure: as §1
Assays with S. littoralis larvae were done as described by Ishaaya et al. (1996, 2003). Castor bean leaves were dipped in various concentrations of the test compounds (and water as control), and were air dried for 2 h under controlled room conditions. The treated leaves were transferred into foam plastic (“Kalkar”) cups containing a layer of sawdust to avoid humidity. The treated leaves were offered to early 3rd-instar (12±1 mg) for 4-day feeding of the laboratory susceptible strain and for additional 4 days on untreated leaves. Larval mortality was determined and recorded on day 4 and 8 or as indicated, and larval weight gain (LWG) was determined on day 4 and 8 or as indicated.
as §2, §3

SMILES | mortality at 50 ppm ([1]; Helicoverpa armigera, 50 ppm, alone, read-out: H. armigera mortality, %) | mortality at 100 ppm ([1]; Helicoverpa armigera, 100 ppm, alone, read-out: H. armigera mortality, %) | Lethal concentrations for Helicoverpa armigera (Heliothis), LD50 [1] | Lethal concentrations for Helicoverpa armigera (Heliothis), LD90 [1] | mortality at 50 ppm ([2]; Spodoptera littoralis, in Ricinus communis, 50 ppm, alone, read-out: S. littoralis mortality, %) | mortality at 100 ppm ([2]; Spodoptera littoralis, in Ricinus communis, 100 ppm, alone, read-out: S. littoralis mortality, %) | Lethal concentrations for Spodoptera littoralis, LD50 [2] | Lethal concentrations for Spodoptera littoralis, LD90 [2] | mortality at 0.05 ppm ([1]; Helicoverpa armigera, 0.05 ppm, alone, read-out: H. armigera mortality, %) | mortality at 0.1 ppm ([1]; Helicoverpa armigera, 0.1 ppm, alone, read-out: H. armigera mortality, %) | mortality at 0.05 ppm ([2]; Spodoptera littoralis, in Ricinus communis, 0.05 ppm, alone, read-out: S. littoralis mortality, %) | mortality at 0.1 ppm ([2]; Spodoptera littoralis, in Ricinus communis, 0.1 ppm, alone, read-out: S. littoralis mortality, %)
CC(C)[C@@H](Nc1ccc(C(F)(F)F)cc1Cl)C(=O)OC(C#N)c1cccc(Oc2ccccc2)c1 (stereo partly shown) [Tau-fluvalinate] | 30% | 45% | LD50 ≥ 100 ppm | LD90 ≥ 500 ppm | 20% | 40% | LD50 ≥ 100 ppm | LD90 ≥ 500 ppm |  |  |  | 
CNC(=O)c1cc(Cl)cc(C)c1NC(=O)c1cc(Br)nn1-c1ncccc1Cl [Chlorantraniliprole] |  |  | LD50 ≥ 0.1 ppm | LD90 ≥ 1 ppm |  |  | LD50 = 0.1 ppm | LD90 = 1 ppm | 18% | 40% | 27% | 48%
